Test results published in ChEMBL document CHEMBL4261633, “Butenolides from a marine-derived fungus Aspergillus terreus with antitumor activities against pancreatic ductal adenocarcinoma cells” (Bioorg Med Chem, 2018).
Activity calls are given as the source filed them. No cut-off for these calls is given here.

Key:
PANC-1 [1] = assay: Antiproliferative activity against human PANC1 cells after 24 hrs by CCK8 assay; assay type: functional, cell-based; conditions: PANC-1, 24 h
HCC1806 = assay: Antiproliferative activity against human HCC1806 cells after 24 hrs by CCK8 assay; assay type: functional, cell-based; conditions: HCC1806, 24 h
HepG2 = assay: Antiproliferative activity against human HepG2 cells after 24 hrs by CCK8 assay; assay type: functional, cell-based; conditions: HepG2, 24 h
BEAS-2B = assay: Antiproliferative activity against human BEAS2B cells after 24 hrs by CCK8 assay; assay type: functional, cell-based
HT-29 = assay: Antiproliferative activity against human HT-29 cells after 24 hrs by CCK8 assay; assay type: functional, cell-based; conditions: HT-29, 24 h
PANC-1 [2] = assay: Cell cycle arrest in human PANC1 cells assessed as accumulation at G1 phase at 10 uM after 24 hrs by RNAase/propidium iodide staining-based flow cytometric analysis (reference value: 67.93 to 75.87%); assay type: functional
PANC-1 [3] = assay: Induction of apoptosis in human PANC1 cells assessed as nuclear chromatin condensation at 5 uM after 24 hrs by Hoechst 33258 staining based fluorescence microscopic analysis; assay type: functional, cell-based
PANC-1 [4] = assay: Induction of apoptosis in human PANC1 cells assessed as nuclear shrinkage at 5 uM after 24 hrs by Hoechst 33258 staining based fluorescence microscopic analysis; assay type: functional, cell-based
PANC-1 [5] = assay: Induction of apoptosis in human PANC1 cells assessed as nuclear fragmentation at 5 uM after 24 hrs by Hoechst 33258 staining based fluorescence microscopic analysis; assay type: functional, cell-based
PANC-1 [6] = assay: Induction of apoptosis in human PANC1 cells assessed as nuclear chromatin condensation at 25 uM after 24 hrs by Hoechst 33258 staining based fluorescence microscopic analysis; assay type: functional, cell-based
PANC-1 [7] = assay: Induction of apoptosis in human PANC1 cells assessed as nuclear shrinkage at 25 uM after 24 hrs by Hoechst 33258 staining based fluorescence microscopic analysis; assay type: functional, cell-based
PANC-1 [8] = assay: Induction of apoptosis in human PANC1 cells assessed as nuclear fragmentation at 25 uM after 24 hrs by Hoechst 33258 staining based fluorescence microscopic analysis; assay type: functional, cell-based
PANC-1 [9] = assay: Cell cycle arrest in human PANC1 cells assessed as accumulation at G1 phase at 5 uM after 24 hrs by RNAase/propidium iodide staining-based flow cytometric analysis (reference value: 67.93 to 75.87%); assay type: functional
PANC-1 [10] = assay: Cell cycle arrest in human PANC1 cells assessed as accumulation at G2/M phase at 5 uM after 24 hrs by RNAase/propidium iodide staining-based flow cytometric analysis (reference value: 6.83 to 11.82%); assay type: functional
PANC-1 [11] = assay: Cell cycle arrest in human PANC1 cells assessed as accumulation at S phase at 5 uM after 24 hrs by RNAase/propidium iodide staining-based flow cytometric analysis (reference value: 11.66 to 19.02%); assay type: functional
PANC-1 [12] = assay: Cell cycle arrest in human PANC1 cells assessed as accumulation at G2/M phase at 10 uM after 24 hrs by RNAase/propidium iodide staining-based flow cytometric analysis (reference value: 6.83 to 11.82%); assay type: functional
PANC-1 [13] = assay: Cell cycle arrest in human PANC1 cells assessed as accumulation at S phase at 10 uM after 24 hrs by RNAase/propidium iodide staining-based flow cytometric analysis (reference value: 11.66 to 19.02%); assay type: functional
PANC-1 [14] = assay: Cell cycle arrest in human PANC1 cells assessed as accumulation at G1 phase at 15 uM after 24 hrs by RNAase/propidium iodide staining-based flow cytometric analysis (reference value: 67.93 to 75.87%); assay type: functional
PANC-1 [15] = assay: Cell cycle arrest in human PANC1 cells assessed as accumulation at G2/M phase at 15 uM after 24 hrs by RNAase/propidium iodide staining-based flow cytometric analysis (reference value: 6.83 to 11.82%); assay type: functional
PANC-1 [16] = assay: Cell cycle arrest in human PANC1 cells assessed as accumulation at S phase at 15 uM after 24 hrs by RNAase/propidium iodide staining-based flow cytometric analysis (reference value: 11.66 to 19.02%); assay type: functional
PANC-1 [17] = assay: Cell cycle arrest in human PANC1 cells assessed as accumulation at G1 phase at 25 uM after 24 hrs by RNAase/propidium iodide staining-based flow cytometric analysis (reference value: 67.93 to 75.87%); assay type: functional
PANC-1 [18] = assay: Cell cycle arrest in human PANC1 cells assessed as accumulation at G2/M phase at 25 uM after 24 hrs by RNAase/propidium iodide staining-based flow cytometric analysis (reference value: 6.83 to 11.82%); assay type: functional
PANC-1 [19] = assay: Cell cycle arrest in human PANC1 cells assessed as accumulation at S phase at 25 uM after 24 hrs by RNAase/propidium iodide staining-based flow cytometric analysis (reference value: 11.66 to 19.02%); assay type: functional
PANC-1 [20] = assay: Induction of apoptosis in human PANC1 cells assessed as necrotic cells at 5 uM after 24 hrs by FITC-Annexin V/propidium iodide staining-based flow cytometric analysis (reference value: 0.7 to 1.4%); assay type: functional
PANC-1 [21] = assay: Induction of apoptosis in human PANC1 cells assessed as late apoptotic cells at 5 uM after 24 hrs by FITC-Annexin V/propidium iodide staining-based flow cytometric analysis (reference value: 0.0 to 0.7%); assay type: functional
PANC-1 [22] = assay: Induction of apoptosis in human PANC1 cells assessed as early apoptotic cells at 5 uM after 24 hrs by FITC-Annexin V/propidium iodide staining-based flow cytometric analysis (reference value: 0.5 to 3.2%); assay type: functional
PANC-1 [23] = assay: Induction of apoptosis in human PANC1 cells assessed as viable cells at 5 uM after 24 hrs by FITC-Annexin V/propidium iodide staining-based flow cytometric analysis (reference value: 94.7 to 98.7%); assay type: functional; conditions: PANC-1, 24 h, read-out: Activity
PANC-1 [24] = assay: Induction of apoptosis in human PANC1 cells assessed as necrotic cells at 10 uM after 24 hrs by FITC-Annexin V/propidium iodide staining-based flow cytometric analysis (reference value: 0.7 to 1.4%); assay type: functional
PANC-1 [25] = assay: Induction of apoptosis in human PANC1 cells assessed as late apoptotic cells at 10 uM after 24 hrs by FITC-Annexin V/propidium iodide staining-based flow cytometric analysis (reference value: 0.0 to 0.7%); assay type: functional
PANC-1 [26] = assay: Induction of apoptosis in human PANC1 cells assessed as early apoptotic cells at 10 uM after 24 hrs by FITC-Annexin V/propidium iodide staining-based flow cytometric analysis (reference value: 0.5 to 3.2%); assay type: functional
PANC-1 [27] = assay: Induction of apoptosis in human PANC1 cells assessed as viable cells at 10 uM after 24 hrs by FITC-Annexin V/propidium iodide staining-based flow cytometric analysis (reference value: 94.7 to 98.7%); assay type: functional; conditions: PANC-1, 24 h, read-out: Activity
PANC-1 [28] = assay: Induction of apoptosis in human PANC1 cells assessed as necrotic cells at 15 uM after 24 hrs by FITC-Annexin V/propidium iodide staining-based flow cytometric analysis (reference value: 0.7 to 1.4%); assay type: functional
PANC-1 [29] = assay: Induction of apoptosis in human PANC1 cells assessed as late apoptotic cells at 15 uM after 24 hrs by FITC-Annexin V/propidium iodide staining-based flow cytometric analysis (reference value: 0.0 to 0.7%); assay type: functional
PANC-1 [30] = assay: Induction of apoptosis in human PANC1 cells assessed as early apoptotic cells at 15 uM after 24 hrs by FITC-Annexin V/propidium iodide staining-based flow cytometric analysis (reference value: 0.5 to 3.2%); assay type: functional
PANC-1 [31] = assay: Induction of apoptosis in human PANC1 cells assessed as viable cells at 15 uM after 24 hrs by FITC-Annexin V/propidium iodide staining-based flow cytometric analysis (reference value: 94.7 to 98.7%); assay type: functional; conditions: PANC-1, 24 h, read-out: Activity
PANC-1 [32] = assay: Induction of apoptosis in human PANC1 cells assessed as necrotic cells at 25 uM after 24 hrs by FITC-Annexin V/propidium iodide staining-based flow cytometric analysis (reference value: 0.7 to 1.4%); assay type: functional
PANC-1 [33] = assay: Induction of apoptosis in human PANC1 cells assessed as late apoptotic cells at 25 uM after 24 hrs by FITC-Annexin V/propidium iodide staining-based flow cytometric analysis (reference value: 0.0 to 0.7%); assay type: functional
PANC-1 [34] = assay: Induction of apoptosis in human PANC1 cells assessed as early apoptotic cells at 25 uM after 24 hrs by FITC-Annexin V/propidium iodide staining-based flow cytometric analysis (reference value: 0.5 to 3.2%); assay type: functional
PANC-1 [35] = assay: Induction of apoptosis in human PANC1 cells assessed as viable cells at 25 uM after 24 hrs by FITC-Annexin V/propidium iodide staining-based flow cytometric analysis (reference value: 94.7 to 98.7%); assay type: functional; conditions: PANC-1, 24 h, read-out: Activity
PANC-1 [36] = assay: Induction of apoptosis in human PANC1 cells after 24 hrs by FITC-Annexin V/propidium iodide staining-based flow cytometric analysis; assay type: functional, cell-based

COC(=O)[C@]1(Cc2ccc(O)c(C[C@@H](O)C(C)C)c2)OC(=O)C(O)=C1c1ccc(O)cc1
IC50 (PANC-1 [1]): > 20 µM | IC50 (HCC1806): > 20 µM | IC50 (HepG2): > 20 µM | IC50 (BEAS-2B): > 20 µM | IC50 (HT-29): > 20 µM

COC(=O)[C@]1(Cc2ccc3c(c2)CC(C(C)(C)O)O3)OC(=O)C(O)=C1c1ccccc1 (stereo not given in full)
IC50 (PANC-1 [1]): > 20 µM | IC50 (HCC1806): > 20 µM | IC50 (HepG2): > 20 µM | IC50 (BEAS-2B): > 20 µM | IC50 (HT-29): > 20 µM

COC(=O)[C@]1(Cc2ccc3c(c2)C[C@H](O)C(C)(C)O3)OC(=O)C(O)=C1c1ccc(O)cc1 [BUTYROLACTONE V]
IC50 (PANC-1 [1]): > 20 µM | IC50 (HCC1806): > 20 µM | IC50 (HepG2): > 20 µM | IC50 (BEAS-2B): > 20 µM | IC50 (HT-29): > 20 µM

COC(=O)[C@]1(Cc2ccc(O)c(CC=C(C)C)c2)OC(=O)C(O)=C1c1ccc(O)c(CC=C(C)C)c1
Activity (PANC-1 [2]): 45.36% | IC50 (PANC-1 [1]): 5.3 µM | IC50 (HCC1806): 17.6 µM | IC50 (HepG2): 9 µM | IC50 (BEAS-2B): > 20 µM | IC50 (HT-29): > 20 µM | Activity (PANC-1 [3]): Active | Activity (PANC-1 [4]): Active | Activity (PANC-1 [5]): Active | Activity (PANC-1 [6]): Active | Activity (PANC-1 [7]): Active | Activity (PANC-1 [8]): Active | Activity (PANC-1 [9]): 49.89% | Activity (PANC-1 [10]): 14.43% | Activity (PANC-1 [11]): 35.11% | Activity (PANC-1 [12]): 10.09% | Activity (PANC-1 [13]): 38.96% | Activity (PANC-1 [14]): 20.44% | Activity (PANC-1 [15]): 38.12% | Activity (PANC-1 [16]): 38.47% | Activity (PANC-1 [17]): 20.46% | Activity (PANC-1 [18]): 35.78% | Activity (PANC-1 [19]): 41.26% | Activity (PANC-1 [20]): 0.2% | Activity (PANC-1 [21]): 0.3% | Activity (PANC-1 [22]): 4.8% | viability at 5 µM (PANC-1 [23]): 94.7% | Activity (PANC-1 [24]): 1.6% | Activity (PANC-1 [25]): 1.2% | Activity (PANC-1 [26]): 9.3% | viability at 10 µM (PANC-1 [27]): 87.9% | Activity (PANC-1 [28]): 1.6% | Activity (PANC-1 [29]): 0.7% | Activity (PANC-1 [30]): 48.5% | viability at 15 µM (PANC-1 [31]): 49.1% | Activity (PANC-1 [32]): 1.3% | Activity (PANC-1 [33]): 11.6% | Activity (PANC-1 [34]): 42.7% | viability at 25 µM (PANC-1 [35]): 44.5% | Activity (PANC-1 [36]): Dose-dependent effect

CC(C)(O)C1Cc2cc(C[C@H]3OC(=O)C(O)=C3c3ccc(O)cc3)ccc2O1 (stereo not given in full)
IC50 (PANC-1 [1]): > 20 µM | IC50 (HCC1806): > 20 µM | IC50 (HepG2): > 20 µM | IC50 (BEAS-2B): > 20 µM | IC50 (HT-29): > 20 µM

COC(=O)[C@]1(Cc2ccc3c(c2)C=CC(C)(C)O3)OC(=O)C(O)=C1c1ccc(O)cc1
IC50 (PANC-1 [1]): > 20 µM | IC50 (HCC1806): > 20 µM | IC50 (HepG2): > 20 µM | IC50 (BEAS-2B): > 20 µM | IC50 (HT-29): > 20 µM
